Earlier results in US6723530B1, “Polynucleotides encoding proexendin, and methods and uses thereof” (Amylin Pharmaceuticals, Inc., priority 1997, dated 2004).
No end group written: not given here.

How the values were obtained:
[1] = test system: guinea pig acinar cell preparations
[2] = test system: cultured islet cell lines; settings: cultured islet cell lines in vitro

Substance	cAMP levels [1]	mode of action towards GLP-1 (agonist / antagonist) (GLP-1)	cAMP accumulation [2]	glucose-dependent insulin secretion [2]	insulin gene expression [2]
truncated GLP-1[7-36)-amide: truncated mammalian GLP-1 peptide amide (HAEGTFTSDVSSYLEGQAAKEFIAWLVKGR-NH2)	increased				
exendin 4(9-39)NH3: truncated exendin 4, competitive antagonist of both exendin 4 and GLP-1		competitive antagonist			
exendin 4	increased	strong agonist	increase	stimulate	increase
